Values of other authors, collected in US20060093571A1, “Hair and skin protecting compositions based on esters or ethers of betulin” (priority 2004, published 2006).

Legend:
elastase = target: T1, elastase (Homo sapiens, UniProt P08246); settings: known from literature
T1 sequence (P08246 30-247 limits assumed): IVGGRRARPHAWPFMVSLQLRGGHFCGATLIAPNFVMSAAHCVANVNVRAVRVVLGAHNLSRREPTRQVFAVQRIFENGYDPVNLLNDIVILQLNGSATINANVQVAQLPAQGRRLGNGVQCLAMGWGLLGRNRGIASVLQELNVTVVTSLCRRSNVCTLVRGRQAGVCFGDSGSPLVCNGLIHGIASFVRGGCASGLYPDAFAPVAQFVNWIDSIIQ

## C=C(C)[C@@H]1CC[C@]2(CO)CC[C@]3(C)[C@H](CC[C@@H]4[C@@]5(C)CC[C@H](O)C(C)(C)[C@@H]5CC[C@]43C)[C@@H]12 [Betulin]
elastase
  inhibition of enzymatic activity of elastase: inhibit
other
  solubility in polar and non-polar solvents: poor solubility

## C=C(C)[C@@H]1CC[C@]2(C(=O)O)CC[C@]3(C)[C@H](CC[C@@H]4[C@@]5(C)CC[C@H](O)C(C)(C)[C@@H]5CC[C@]43C)[C@@H]12 [betulinic acid]
other
  solubility in polar and non-polar solvents: poor solubility

## CC1(C)CC[C@]2(C(=O)O)CC[C@]3(C)C(=CC[C@@H]4[C@@]5(C)CC[C@H](O)C(C)(C)[C@@H]5CC[C@]43C)[C@@H]2C1 [oleanolic acid]
elastase
  inhibition of enzymatic activity of elastase: inhibit
other
  solubility in polar and non-polar solvents: poor solubility

## C[C@H]1[C@H](C)CC[C@]2(C(=O)O)CC[C@]3(C)C(=CC[C@@H]4[C@@]5(C)CC[C@H](O)C(C)(C)[C@@H]5CC[C@]43C)[C@H]12 [ursolic acid]
elastase
  inhibition of enzymatic activity of elastase: inhibit
other
  solubility in polar and non-polar solvents: poor solubility
